# Test results reported in article PMC11741150, “Synthesis and In Vitro Antileishmanial Efficacy of Novel Ethylene Glycol Analogues of Benzothiadiazine‐1,1‐dioxide” (Chemistry & Biodiversity, 2024).
# Several values for one entry are separate records, joined by “and”; a condition that tells them apart may be missing. Equal values may be shown once.
# Key:
# [1] = test system: Leishmania donovani (strain 9515 (MHOM/IN/95/9515)) promastigotes; assay: Antipromastigote resazurin assay; assay type: cell-based; conditions: for IC50 / inhibition at 10 µM: Leishmania donovani; for IC50: promastigotes, maximum concentration 2 mM, ±standard deviation, read-out: L. donovani 9515 antipromastigote IC50; for inhibition at 10 µM: L. donovani strain 9515 promastigotes, read-out: Antipromastigote growth inhibition (%)
# Method: The antipromastigote activity of synthesised compounds was evaluated using a modified method of the resazurin assay[45, 46] against two Leishmania strains.
# Leishmania donovani (strain 9515 (MHOM/IN/95/9515)) and L. major (strain NIH S (MHOM/SN/74/Seidman)) promastigotes were cultured in M199 with Hank's salts and 0.68 mM L‐glutamine (Sigma Aldrich) supplemented with 0.0005 % hemin, 0.0001 % biotin, 0.1 mM adenine (Sigma Aldrich), 10 % fetal bovine serum, 50 U/mL Penicillin/Streptomycin solution, 4.2 mM sodium bicarbonate and 25 mM Hepes buffer. The promastigotes were maintained at an adjusted pH of 7.3–7.4 growth medium at 26 °C. […] Amphothericin B (10 μM) served as the standard antileishmanial drug and parasite‐free growth medium was included as the blank. The plates were incubated for 48 hours at 26 °C in humidified environment.
# Following the initial incubation, 50 μL of resazurin solution (0.01 % in PBS) was added to each well and the plates underwent further incubation at 26 °C for 24 hours in the dark. A Thermofisher Scientific's GO Multiscan plate reader was used to measure absorbance at 570 nm and 600 nm. SkanIt 4.0 Research Edition software was used to perform the data analysis for every biological replicate. Background absorbance (600 nm) was subtracted from the 570 nm absorbance data and the mean absorbance was computed. The cell viability and data analysis were performed as indicated in the cytotoxicity assay.
# [2] = test system: L. major (strain NIH S (MHOM/SN/74/Seidman)) promastigotes; assay: Antipromastigote resazurin assay; assay type: cell-based, Leishmania major; conditions: for inhibition at 10 µM / IC50: Leishmania major; for inhibition at 10 µM: L. major strain IR‐173 (as headed) promastigotes, read-out: Antipromastigote growth inhibition (%); for IC50: promastigotes, maximum concentration 2 mM, ±standard deviation
# [3] = test system: L. major intramacrophage amastigotes; assay: Intramacrophage antileishmanial growth inhibition assay; assay type: cell-based, Leishmania major; conditions: for inhibition at 10 µM: Leishmania major, L. major strain IR‐173 (as headed) intramacrophage amastigotes, read-out: Anti‐amastigote growth inhibition (%)
# Method: (§1) A modified resazurin assay[47, 48] and the two Leishmania strains were also used to assess the efficacy of synthesised compounds against intramacrophage parasites.
# (§2) Human monocytic leukemia (THP‐1) cells were cultured in RPMI 1640 medium with L‐glutamine (Sigma Aldrich) supplemented with, 1 % penicillin/streptomycin solution (Lonza), 10 % fetal bovine serum (FBS; Thermofisher Scientific) and 2 g/L sodium bicarbonate (Sigma Aldrich). The cells were maintained in a humidified environment at 37 °C and 5 % CO2.
# (§3) For the intramacrophage assay, a 500 000 cells/mL THP‐1 cell suspension was prepared, 25 ng/mL phorbol 12‐myristate 13‐acetate (PMA) added and the suspension seeded in 96 well plates (Nunc, Thermofisher Scientific) at 200 μL/well. Cell‐free growth medium was included as the blank. The plates were incubated for 48 hours in a humidified environment at 37 °C and 5 % CO2 to encourage the differentiation of the suspended cells to adherent macrophages.
# (§4) To eliminate non‐adherent cells after the PMA treatment, the plates were carefully washed once with warm PBS. Then, a premade promastigote suspension ([…]) was added. The suspension consisted of stationary phase promastigotes in THP‐1 cell growth medium, with a multiplicity of infection (MOI) of 30 : 1. Parasite‐free medium was also added to selected THP‐1 cell‐containing wells to serve as parasite blank. The plates were thoroughly rinsed four times with warm PBS to get rid of extracellular parasites after being cultured for 24 hours to encourage macrophage infection. The cells were then treated with 160 μL of growth medium and 40 μL of either solvent (parasite blank and negative control with parasites) or 40 μL of compound solutions. For a dual‐point activity screening, 10 μM and 2 mM of compound were prepared in separate plates. Amphothericin B (10 μM) served as the standard antileishmanial drug. The plates were incubated for 72 hours in a humidified environment at 37 °C and 5 % CO2.
# (§5) For the plates treated with 10 μM of compound, any serum and extracellular promastigotes that remained were carefully removed from the wells by rinsing with warm PBS. The wells were then treated with 20 μL of 0.05 % sodium dodecyl sulphate (SDS; Sigma Aldrich) in PBS for 30 sec to lyse the macrophages. Lysis was terminated with the addition of 180 μL promastigote growth medium with 10 % FBS. For the resazurin assay, 10 μL of resazurin solution (0.025 % in PBS) was added to each well and the plates were further incubated at 37 °C in for 72 hours in the dark to measure amastigote recovery to proliferative promastigotes.
# Any remaining extracellular promastigotes were afterwards carefully removed from the wells by rinsing with warm PBS. The wells were then treated with 50 μL of resazurin solution (0.01 % in PBS) and the plates were further incubated at 37 °C for 4 hours in the dark to assess host cell viability.
# (§6) A Thermofisher Scientific's GO Multiscan plate reader was used to measure absorbance at 570 nm and 600 nm. SkanIt 4.0 Research Edition software was used to perform the data analysis for every biological replicate. Background absorbance (600 nm) was subtracted from the 570 nm absorbance data and the mean absorbance was computed.
# (§7) For the activity screening, the following formula was used to determine growth inhibition percentage: Growthinhibition%=100-[(ΔAbssample-ΔAbsblank)/(ΔAbsnegcontrol-ΔAbsblank)X100]
# [4] = test system: L. donovani strain 9515 intramacrophage amastigotes; assay: as above; assay type: cell-based; conditions: Leishmania donovani, read-out: Anti‐amastigote growth inhibition (%)
# Method: as §1, §2, §3, §4, §5, §6, §7
# Vero cells = assay: Cytotoxicity resazurin assay; assay type: cell-based; conditions: Chlorocebus sabaeus, 48 hours, ±standard deviation, maximum concentration 2 mM
# Method: The cytotoxicity of the synthesised compounds was evaluated using the resazurin assay. The assay involves live cells converting oxidized blue resazurin dye to pink, highly fluorescent resorufin through irreversible enzymatic reduction.[44] This non‐toxic reagent is a useful instrument for determining drug toxicity and cell growth.
# Dulbecco's modified Eagle's medium (DMEM) with high glucose (Separations) supplemented with 1 % L‐glutamine, non‐essential amino acids, and penicillin‐streptomycin (Sigma Aldrich), and 10 % fetal bovine serum (Thermofisher Scientific) was used to cultivate Vero cells. The cells were kept at 37 °C and 5 % CO2 in a humidified environment. For the assay, 96 well plates were prepared by pipetting 100 μL of cell suspension (60 000 cells/mL) per well and incubating the plates for 24 hours. The cells were then treated with seven two‐fold concentration dilutions of: (1) 1 μM emetine dihydrochloride (Sigma Aldrich) solution (positive control); (2) 2 mM experimental compound solutions. Cell‐free growth medium was included as a blank. The treated plates were incubated for 48 hours.
# To initiate the resazurin assay, 50 μL of sterile‐filtered resazurin sodium salt (Sigma Aldrich) solution (0.01 % in phosphate‐buffered saline (PBS)) was added to the prepared plates and then incubated for 2 hours. A Thermofisher Scientific's GO Multiscan plate reader was used to measure the absorbance at 570 and 600 nm. SkanIt 4.0 Research Edition software was used to perform the data analysis for every biological replicate. After subtracting background absorbance (600 nm) from the 570 nm absorbance data, the mean absorbance was computed, and the percentage of viable cells was estimated using the formula below: Cellviability%=(ΔAbssample-ΔAbsblank)/(ΔAbsnegcontrol-ΔAbsblank)X100
# GraphPad Prism 5 was used to calculate the IC50 and Z‐score for each compound's biological replicate. The mean IC50 of the biological replicates and standard deviation (SD) was calculated to determine the final IC50 of each compound.
# [5] = test system: L. donovani strain 1S amastigote; design: method as in PMID 33491807; conditions: previous study; cited from earlier work
# [6] = test system: L. donovani 1S promastigotes; design: method as in PMID 33491807; conditions: read-out: L. donovani 1S promas. IC50; cited from earlier work
# Vero = test system: Vero; design: method as in PMID 33491807; conditions: cited from earlier work
smiles,measurement,setting,value
"O=S1(=O)c2ccccc2N=CN1CCO [Compound 2, 2‐(2‐Hydroxyethyl)‐2H‐benzo[e][1,2,4]thiadiazine‐1,1‐dioxide]",melting point,,167 to 170 °C
same,SI1: Selectivity index=IC50 Vero/L. donovani 9515 antipromastigote IC50,[1],0.90
same,IC50,[1],839 ± 41.9 µM
same,inhibition at 10 µM,[1],0%
same,SI2: Selectivity index=IC50 Vero/L. major antipromastigote IC50,[2],0.70
same,inhibition at 10 µM,[2],0%
same,inhibition at 10 µM,[3],0%
same,inhibition at 10 µM,[4],0%
same,IC50,Vero cells,752 ± 174 µM
"O=S1(=O)c2ccccc2N=CN1CCOc1ccc(Br)cc1 [Compound 10, 2‐[2‐(4‐Bromophenoxy)ethyl]‐2H‐benzo[e][1,2,4]thiadiazine‐1,1‐dioxide]",melting point,,217 to 220 °C
same,SI1: Selectivity index=IC50 Vero/L. donovani 9515 antipromastigote IC50,[1],0.73
same,IC50,[1],906 ± 62.1 µM
same,inhibition at 10 µM,[1],0%
same,SI2: Selectivity index=IC50 Vero/L. major antipromastigote IC50,[2],0.47
same,inhibition at 10 µM,[2],0%
same,inhibition at 10 µM,[3],0%
same,inhibition at 10 µM,[4],0%
same,IC50,Vero cells,663 ± 24 µM
"C[C@@H]1[C@H](O)[C@@H](C)/C=C/C=C/C=C/C=C/C=C/C=C/C=C/[C@H](O[C@@H]2O[C@H](C)[C@@H](O)[C@H](N)[C@@H]2O)C[C@@H]2O[C@](O)(C[C@@H](O)C[C@@H](O)[C@H](O)CC[C@@H](O)C[C@@H](O)CC(=O)O[C@H]1C)C[C@H](O)[C@H]2C(=O)O [AmB, Amphotericin B, reference compound]",IC50,[1],0.02 µM
same,inhibition at 10 µM,[1],100%
same,inhibition at 10 µM,[2],100%
same,inhibition at 10 µM,[3],100%
same,inhibition at 10 µM,[4],100%
same,IC50,Vero cells,57.8 ± 3.22 µM
"COCCN1C=Nc2ccccc2S1(=O)=O [Compound 3, 2‐(2‐Methoxyethyl)‐2H‐benzo[e][1,2,4]thiadiazine‐1,1‐dioxide]",IC50,[1],482 ± 7.57 µM
same,inhibition at 10 µM,[1],2%
same,IC50,[2],701 ± 40.8 µM
same,inhibition at 10 µM,[2],0%
same,inhibition at 10 µM,[3],0%
same,inhibition at 10 µM,[4],0%
same,IC50,Vero cells,502 ± 152 µM
"O=S1(=O)NC=Nc2ccccc21 [Compound 1, 2H‐Benzo[e][1,2,4]thiadiazine‐1,1‐dioxide]",melting point,,223 to 226 °C
same,activity against L. donovani strain 1S amastigote,[5],sub‐micromolar activity
same,SI1: Selectivity index=IC50 Vero/L. donovani 9515 antipromastigote IC50,[1],0.53
same,IC50,[1],612 ± 30.9 µM
same,inhibition at 10 µM,[1],10%
same,SI2: Selectivity index=IC50 Vero/L. major antipromastigote IC50,[2],0.38
same,IC50,[2],861 ± 46.5 µM
same,inhibition at 10 µM,[2],0%
same,IC50,[6],< 10 µM and 7.33 µM
same,inhibition at 10 µM,[3],0%
same,inhibition at 10 µM,[4],0%
same,IC50,Vero,> 100 µM
same,IC50,Vero cells,323 ± 215 µM
"O=[N+]([O-])c1ccc(OCCN2C=Nc3ccccc3S2(=O)=O)cc1 [Compound 12, 2‐[2‐(4‐Nitrophenoxy)ethyl]‐2H‐benzo[e][1,2,4]thiadiazine‐1,1‐dioxide]",SI1: Selectivity index=IC50 Vero/L. donovani 9515 antipromastigote IC50,[1],1.62
same,IC50,[1],411 ± 27.9 µM
same,inhibition at 10 µM,[1],9%
same,SI2: Selectivity index=IC50 Vero/L. major antipromastigote IC50,[2],0.85
same,IC50,[2],783 ± 408 µM
same,inhibition at 10 µM,[2],0%
same,host cell and parasite death in L. major anti‐amastigote screening,"[3]; 2 mM of compound, L. major only",killed both parasite and host cell
same,inhibition at 10 µM,[3],0%
same,inhibition at 10 µM,[4],0%
same,IC50,Vero cells,667 ± 58 µM
